Reference: patent US10299714B2, “Blood collection devices containing blood stabilization agent including variegin or analog thereof and/or a polysulfated disaccharide” (Becton, Dickinson and Company, priority 2010, dated 2019)
Where a name gives a salt, the structure may show the parent alone. Non-standard residues stand in square brackets, D forms with d. Residues, ends and D or L forms follow the SMILES beside them. Oic = O=C(O)[C@@H]1C[C@@H]2CCCC[C@@H]2N1; Phe(4-Me) = Cc1ccc(C[C@H](N)C(=O)O)cc1

Columns and labels:
whole blood sample [1] = assay: Visual inspection of stored whole blood sample for hemolysis; assay type: cell-based, human; details: Table 5
Text: Skilled practitioners will appreciate the hemolyzed samples are an obvious visual clue that damage to blood cells has occurred, either during the collection, transport, or storage of blood samples. Although hemolysis is not necessarily detrimental to any one clinical assay, it is a well known interference for some tests, and thus it is preferable to avoid causing hemolysis. Hemolysis can be measured by visual scale (e.g., mild or slightly pink, moderate or noticeably red, or severe or dark red). Hemolysis can also be measured by spectroscopic measurement of the red color of the hemoglobin itself, and can be reported by the concentration of hemoglobin released into the serum or plasma (e.g., such that less than about 20 mg/dL concentration of released hemoglobin, or to an extent that the hemoglobin concentration cannot be measured visually or by spectroscopy represents “minor or negligible” hemolysis, about 20 to about 100 mg/dL represents “mild” hemolysis, about 100 to about 300 represents “moderate” hemolysis, or greater than about 300 mg/dL represents “severe” hemolysis).
(§1) The results are shown in Table 5 which lists additives alone or in combination that were spiked into freshly drawn whole blood samples. […] For some of the conditions tested, only a subset of these three parameters was recorded.

platelets [2] = assay: Whole blood impedance aggregometry (Multiplate): platelet aggregation after room temperature storage of drawn blood; assay type: cell-based, human
Text: The blood was allowed to stand at room temperature, in undisturbed aliquots, until tested at the times indicated. Samples were inverted several times immediately prior to testing, to re-suspend blood cells that naturally settle over time.
Measurements: Testing of platelet function (which in this experiment, was aggregation activity) was done using the Multiplate instrument (Verum Diagnostics, Munich, Germany), which uses whole blood as the sample and an increase in impedance as the measurement of platelet aggregation. The instrument was used per manufacturer's instructions. Briefly, 300 microliters of isotonic saline was warmed in each reaction cuvette, and to this was added 300 microliters of the whole blood sample. In reactions where aspirin or other platelet antagonists (inhibitors) were added in vitro, 20 microliters (μL) of a stock solution of aspirin was spiked into the samples. The aggregation reaction was initiated by addition of a platelet agonist, in this case collagen, at 3.2 μg/ml and volume (20 μl) per manufacturer's instructions. Upon addition of the collagen, the impedance measurements began automatically, and were continued for 6 minutes, representing the full course along the x-axis in the graphs shown in FIG. 2. The graphs show platelet aggregation, as reported by impedance, as an arbitrary unitless measurement on the y-axis, over the 6-minute run time on the x-axis. Traces shown are raw platelet aggregation data delivered from the instrument. […] Representative data are shown for blood that dwells at room temperature after the initial draw for 1 hr, 24 hr, 48 hr, and 72 hr. Data are shown for the blood itself, as well for blood pre-treated with aspirin to inhibit platelet function immediately prior to testing.
The experiments were performed as described in Example 1. In this case, the data are plotted as a function of time that the blood sample dwells outside of the body (x-axis) versus platelet function as shown as the area under the curve (AUC) as one representation of the platelet aggregation signal. AUC is the integrated signal from the raw data traces shown in Example 1, and also is reported as a unitless measurement. The effective background level of the instrument is drawn as a dashed line across the bottom of the graph. Any AUC measurement of aggregation at or below this level was considered so weak as to be unreportable, essentially representing a “null” data level.
(§2) Relative stability of platelets was examined with respect to a range of concentrations of variegin (SEQ ID NO:1). Experiments were performed as described above, using either collagen or adenosine diphosphate (ADP) as agonists, all per manufacturer's recommended protocols. Table 2 lists a qualitative assessment of stability, namely how long after initially drawing the blood was platelet aggregation measureable above the effective instrument baseline, the time to first visual observation of clotted, insoluble material in the whole blood sample, and an assessment of the severity or extent of the presence of this insoluble material was also recorded.
These peptides were used as the blood stabilization agent, and were spiked into blood immediately after collection into an empty, evacuated blood collection tube, achieving a final concentration of 150 μM. The blood was allowed to dwell in a whole-blood state at room temperature, until assayed for platelet aggregation potential, all as described in Example 1. Agonists used included collagen and ADP, following manufacturer's instructions.

platelets [3] = assay: Platelet aggregation measurements using low dose ADP agonist, inventive tube versus hirudin tube; assay type: cell-based, human; set-up: key to Aggregation, AUC: area under curve of impedance aggregation trace, arbitrary unitless units; details: ADP 1.25 μM
Protocol: Measurements: Testing of platelet function (which in this experiment, was aggregation activity) was done using the Multiplate instrument (Verum Diagnostics, Munich, Germany), which uses whole blood as the sample and an increase in impedance as the measurement of platelet aggregation. The instrument was used per manufacturer's instructions. Briefly, 300 microliters of isotonic saline was warmed in each reaction cuvette, and to this was added 300 microliters of the whole blood sample. In reactions where aspirin or other platelet antagonists (inhibitors) were added in vitro, 20 microliters (μL) of a stock solution of aspirin was spiked into the samples. The aggregation reaction was initiated by addition of a platelet agonist, in this case collagen, at 3.2 μg/ml and volume (20 μl) per manufacturer's instructions. Upon addition of the collagen, the impedance measurements began automatically, and were continued for 6 minutes, representing the full course along the x-axis in the graphs shown in FIG. 2. The graphs show platelet aggregation, as reported by impedance, as an arbitrary unitless measurement on the y-axis, over the 6-minute run time on the x-axis. Traces shown are raw platelet aggregation data delivered from the instrument. The duplicate traces evident in some of the graphs represent two duplicate measurement channels that always ran simultaneously, to assist with statistical significance of the data, and often so closely overlap as to look like only a single trace in some graphs. Representative data are shown for blood that dwells at room temperature after the initial draw for 1 hr, 24 hr, 48 hr, and 72 hr. Data are shown for the blood itself, as well for blood pre-treated with aspirin to inhibit platelet function immediately prior to testing.
Relative stability of platelets was examined in blood that was collected from 5 different human subjects using an inventive blood collection tube containing 150 μM variegin (SEQ ID NO:1)+1.17 USP/mL unfractionated heparin, and as a comparison, blood collection tubes containing hirudin, commercially available from Verum Diagnostica (Catalog #MP0600 for “Hirudin vacuum blood collection tube”). Experiments were carried out as described above in Example 1, using the whole blood impedance aggregometer, and using a low dose of ADP (1.25 μM final concentration) as the agonist.

whole blood sample [4] = assay: Visual inspection of stored whole blood sample for clotted, insoluble material; set-up: species or system human; details: peptide 150 μM; room temperature
Protocol: as §2
These peptides were used as the blood stabilization agent, and were spiked into blood immediately after collection into an empty, evacuated blood collection tube, achieving a final concentration of 150 μM. The blood was allowed to dwell in a whole-blood state at room temperature, until assayed for platelet aggregation potential, all as described in Example 1. Agonists used included collagen and ADP, following manufacturer's instructions. Table 4 lists a qualitative assessment of stability, namely how long after initially drawing the sample was platelet aggregation measureable above the effective instrument baseline. Additionally, the time to first visual observation of clotted, insoluble material in the whole blood sample, and an assessment of the severity or extent of the presence of this insoluble material was also recorded. In some cases, only visual characterization of the amount of insoluble material was reported, without having performed any platelet aggregation measurements.
as §1

[5] = Table 4, peptide spiked into blood to 150 μM final, collagen and ADP, room temperature

O=S(=O)(O)OC[C@H]1O[C@@](COS(=O)(=O)O)(O[C@H]2O[C@H](COS(=O)(=O)O)[C@@H](OS(=O)(=O)O)[C@H](OS(=O)(=O)O)[C@H]2OS(=O)(=O)O)[C@@H](OS(=O)(=O)O)[C@@H]1OS(=O)(=O)O [SOS, sucrose octasulfate]
Visual inspection for hemolysis (whole blood sample [1]; additive alone at 2 mM): None-mild

Cc1ccc(C[C@H](NC(=O)[C@@H](C)NC(=O)[C@@H]2CCCN2C(=O)[C@@H]2C[C@@H]3CCCC[C@@H]3N2C(=O)[C@H](N)CCCN=C(N)N)C(N)=O)cc1 [Thrombostatin (FM-19), rOicPaF(p-Me)—NH2] (H-[dR][Oic]P[dA][Phe(4-Me)]-NH2)
Visual inspection for hemolysis (whole blood sample [1]; additive alone at 30 μM): None-mild

O=C(O)CC(O)(CC(=O)O)C(=O)O [citrate, sodium citrate, reference compound]
platelet aggregation, area under the curve (AUC), FIG. 3 (platelets [2]; 24 hr after draw, collagen, no aspirin): very close to the effective null level
platelet aggregation, area under the curve (AUC), FIG. 3 (platelets [2]; 48 hr after draw, collagen, no aspirin): no meaningful aggregation was detected
platelet aggregation signal (impedance, FIG. 2) (platelets [2]; all times longer than 1 hr (24, 48, 72 hr), collagen, sodium citrate ([…]) tube): clearly lost, resulting in almost non-measureable signal
loss of platelet function relative to the 1 hr sample (FIG. 4) (platelets [2]; within 24 hr, collagen, average of three human subjects): lost well more than half of their function

CC[C@H](C)[C@H](NC(=O)[C@H](C)NC(=O)[C@H](CCC(=O)O)NC(=O)[C@H](Cc1ccccc1)NC(=O)[C@H](CC(=O)O)NC(=O)[C@H](Cc1ccccc1)NC(=O)[C@@H]1CCCN1C(=O)[C@@H]1CCCN1C(=O)[C@H](C)NC(=O)[C@@H](NC(=O)[C@H](CCCCN)NC(=O)[C@H](Cc1cnc[nH]1)NC(=O)[C@H](CCSC)NC(=O)[C@H](CCCCN)NC(=O)[C@@H]1CCCN1C(=O)[C@H](CCC(=O)O)NC(=O)[C@H](C)NC(=O)[C@@H](NC(=O)[C@H](CC(=O)O)NC(=O)CNC(=O)[C@H](CCC(N)=O)NC(=O)[C@H](CC(=O)O)NC(=O)[C@@H](N)CO)C(C)C)[C@@H](C)O)C(=O)N1CCC[C@H]1C(=O)N[C@@H](CCC(=O)O)C(=O)N[C@@H](CCC(=O)O)C(=O)N[C@@H](Cc1ccc(O)cc1)C(=O)N[C@@H](CC(C)C)C(=O)N[C@@H](CC(=O)O)C(=O)N[C@@H](CC(=O)O)C(=O)N[C@@H](CCC(=O)O)C(=O)N[C@@H](CO)C(=O)O [variegin]
platelet aggregation signal (impedance, FIG. 2) (platelets [2]; 24 and 48 hrs after draw, collagen, tube with 150 μM variegin, room temperature): preserved platelet function substantially at the level of function measured in the 1 hr-old sample
platelet aggregation, area under the curve (AUC), FIG. 3 (platelets [2]; 72 hr after draw, collagen, 150 μM variegin): meaningful measurements even at 72 hr
platelet aggregation signal (impedance, FIG. 2) (platelets [2]; 72 hr after draw, collagen, tube with 150 μM variegin, room temperature): slightly reduced but still sufficiently strong
Time after blood draw where aggregation was still measurable above baseline (platelets [2]; Table 2, 2 μM variegin, collagen or ADP, room temperature): 2 h
Time after blood draw where aggregation was still measurable above baseline (platelets [2]; Table 2, 15 μM variegin, collagen or ADP, room temperature): 24 h
Time after blood draw where aggregation was still measurable above baseline (platelets [2]; Table 2, 50 μM variegin, collagen or ADP, room temperature): 24 h
Time after blood draw where aggregation was still measurable above baseline (platelets [2]; Table 2, 75 μM variegin, collagen or ADP, room temperature): 48 to 72 h
Time after blood draw where aggregation was still measurable above baseline (platelets [2]; Table 2, 150 μM variegin, collagen or ADP, room temperature): ≥ 72 h
Time after blood draw where aggregation was still measurable above baseline (platelets [2]; [5]): 72 h
platelet aggregation signal maintained relative to the 1 hr sample (FIG. 4) (platelets [2]; as of 48 hr, collagen, average of three human subjects, 150 μM variegin): well more than half of the signal was maintained
strength of platelet aggregation signal (impedance, FIG. 2) (platelets [2]; fresh sample, 1 hr after draw, collagen […], tube with 150 μM variegin or sodium citrate ([…]), room temperature): higher than the citrate reference sample
Visual inspection for hemolysis (whole blood sample [1]; additive alone at 150 μM): None-mild

GDVAEPKMHKTAPPFDFEAIPEEYLDDES (Synthetic Peptide Variegin Fragment) [Ct29]
Time after blood draw where aggregation was still measurable above baseline (platelets [2]; [5]): 54 to 79 h

Hirudin
Aggregation, AUC (platelets [3]; 0 hr, Subject 1): 34
Aggregation, AUC (platelets [3]; 0 hr, Subject 2): 18
Aggregation, AUC (platelets [3]; 0 hr, Subject 3): 84
Aggregation, AUC (platelets [3]; 0 hr, Subject 4): 113
Aggregation, AUC (platelets [3]; 0 hr, Subject 5): 59
Aggregation, AUC (platelets [3]; 24 hr, Subject 1): 27
Aggregation, AUC (platelets [3]; 24 hr, Subject 2): 15
Aggregation, AUC (platelets [3]; 24 hr, Subject 3): 25
Aggregation, AUC (platelets [3]; 24 hr, Subject 4): 22
Aggregation, AUC (platelets [3]; 24 hr, Subject 5): 37
area under the curve for the 1 h sample (platelets [3]; one of the five samples): 18
aggregation (AUC), mean +/- spread of the 5 samples (platelets [3]; time zero): 62+/−38

SDQGDVAEPAMHKTAPPFDFEAIPEEYLDDES (Synthetic Peptide Variegin Fragment) [K10A]
time after blood draw to solid clotting of the sample (whole blood sample [4]): ≤ 4 h

heparin [reference compound]
blood stabilization performance (data not shown) (platelets [2]; used alone at 1.17 U/ml): performed relatively poorly
